Source: PubChem BioAssay AID977624 (Broad Institute, 2014)
Records with an inconclusive call do not appear. The source made the active and inactive calls.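 Rule for the calls: active = compound lowering the normal-ribosome reporter at least twice as much as the humanized-ribosome reporter, growth loss under a set limit; inconclusive = no clear call, values can overlap the other calls; inactive = the rest.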

tested on: E. coli mixed culture (wild-type GFP + h34 RFP) total growth, OD600, 24 h; test: growth inhibition of wild-type GFP E. coli, dose response, h34 mutant RFP, cherry-pick (AID 977624);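 note: wild-type GFP strain co-cultured with humanized h34 ribosome RFP strain in same well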; conditions: E. coli mixed culture (wild-type GFP + h34 RFP), 24 h; measured here: total OD600 growth

| Compound | AC50 |
| --- | --- |
| CC(=O)Nc1cccc(NC(=O)CSc2ccc(-c3cccnc3)nn2)c1 | > 100 µM |
| CCc1ccc(C(=O)Nc2cccnc2Oc2ccc(Cl)cc2)cc1 | > 100 µM |
| CO[C@@H]1CN(C)C(=O)c2cc(NC(=O)C3CCCC3)ccc2OC[C@@H](C)N(C(=O)Nc2ccc(C(F)(F)F)cc2)C[C@H]1C | > 100 µM |
| O=C(CC1C(=O)NCCN1CC1CCCCC1)NCc1ccc(F)cc1F (stereo not drawn) | > 100 µM |
| O=C(c1cnc(Cc2c[nH]c3ccccc23)c(I)c1)N1CCCCC1 | > 100 µM |
| CCOC(=O)c1c(C)[nH]c(C)c1S(=O)(=O)NCCN1CCN(c2ccccc2F)CC1 | > 100 µM |
| CC(=O)Nc1cccc(-c2ccnc3c2CC(C(=O)Nc2ccc4c(c2)OCO4)O3)c1 (stereo not drawn) | > 100 µM |
| O=C(c1ccc2c(c1)CCN2S(=O)(=O)c1ccccc1)N1CCN(c2ccccc2)CC1 | > 100 µM |
| N#Cc1cccc(-c2ccc3c(c2)[C@H]2[C@H](CCN2C(=O)c2ccccc2F)[C@H](CO)N3)c1 | > 100 µM |
| O=C(Cc1c(Cl)cccc1Cl)Nc1cccc(S(=O)(=O)N2CCOCC2)c1 | 48.6 µM |
| C[C@@H]1CCCCO[C@@H](CN(C)C(=O)c2ccccc2)[C@H](C)CN([C@@H](C)CO)C(=O)c2cc(NC(=O)c3ccccc3)ccc2O1 | > 100 µM |
| Cc1nc(SCC(=O)Nc2ccc3c(c2)OCCO3)nc(C)c1C | > 100 µM |
| O=C(O)c1cccnc1SCc1ccccc1Cl | > 100 µM |
| Cn1nc(C(=O)Nc2cccc(S(=O)(=O)N3CCCCC3)c2)c2ccccc2c1=O | > 100 µM |
| CN1CCN(C(=O)C[C@@H]2CC[C@@H]3[C@H](COC[C@H](O)CN3C(=O)Nc3ccc(Cl)cc3)O2)CC1 | > 100 µM |
| Cc1ccccc1COc1ccc(-c2nn[nH]n2)cc1 | > 100 µM |
| O=C(Nc1cccc(Oc2ccc3c(c2)C(=O)NC3=O)c1)c1cccs1 | > 100 µM |
| COc1ccc(NC(=O)Nc2cccc3c2O[C@H](CN(C)S(=O)(=O)c2ccc(Cl)cc2)[C@H](C)CN([C@@H](C)CO)C3=O)cc1 | > 100 µM |
| O=C(Nc1cccc(Cl)c1)N1C[C@@H]2[C@H](c3ccccc31)[C@H](CO)N2Cc1ccncc1 | > 100 µM |

| Compound | AC50 |
| --- | --- |
| O=C(Nc1ccc(F)cc1)N1CCCCN2[C@@H](CO)[C@H](c3ccc(-c4ccncc4)cc3)[C@@H]2C1 | > 100 µM |
| O=S(=O)(c1ccccc1)N1CC[C@@H]2[C@H](CO)Nc3ccc(Br)cc3[C@@H]21 | > 100 µM |
| CCOC(=O)c1nc(C)sc1-c1ccnn1S(=O)(=O)c1cccc(Cl)c1 | 52.2 µM |
| C=CCN(CC(O)c1cccc([N+](=O)[O-])c1)C(C)CCc1ccccc1 (stereo not drawn) | > 100 µM |
| Cc1cccc(-c2ccc([C@H]3[C@H](CO)N4CCCCN(S(=O)(=O)c5ccccc5C)C[C@@H]34)cc2)c1 | > 52 µM |
| CCOC(=O)c1cc(-c2ccc(OC)cc2)n[nH]1 | > 100 µM |
| CCCN(Cc1ccco1)S(=O)(=O)c1ccc(OC)c(OC)c1 | > 100 µM |
| CCOc1ccc(CCNC(=O)CCn2ccc3cc(S(=O)(=O)N4CCCC4)ccc32)cc1 | > 100 µM |
| CCn1cc(CCC(=O)NCCc2ccccc2)c2ccccc21 | > 100 µM |
| C=CCn1c(SCC(=O)Nc2ccc3c(c2)OCCO3)nnc1-c1ccco1 | > 100 µM |
| Cc1cccc(OCCC(=O)Nc2ccc(F)c(F)c2)c1 | > 100 µM |
| CCSc1nc2ccccc2c(=O)n1CCc1ccc(OC)c(OC)c1 | > 100 µM |
| Cc1noc(C)c1NC(=O)N(C)C[C@H]1OCCCC[C@@H](C)Oc2ccc(NC(=O)Nc3cccc4ccccc34)cc2C(=O)N([C@@H](C)CO)C[C@H]1C | > 100 µM |
| O=C(Nc1cc(S(=O)(=O)N2CCOCC2)ccc1N1CCOCC1)c1ccc([N+](=O)[O-])s1 | > 100 µM |
| CC(=O)c1cccc(NC(=O)COC(=O)CCC(=O)c2ccc(F)cc2)c1 | > 100 µM |
| CN(C)Cc1nc2ccccc2c(=O)n1Cc1nc(-c2cccc([N+](=O)[O-])c2)cs1 | > 100 µM |
| COc1ccccc1NC(=O)CSc1nccn1Cc1ccc(F)cc1 | > 100 µM |
| CC1CCN(c2ccc3nnc(CCC(=O)Nc4cccc(F)c4)n3n2)CC1 | > 100 µM |
| O=C1c2ccccc2NC(c2ccc(-c3cccc([N+](=O)[O-])c3)o2)N1O (stereo not drawn) | > 100 µM |

tested on: E. coli wild-type GFP strain growth, fluorescence, 24 h; test: as above; conditions: not given

| Compound | AC50 |
| --- | --- |
| CCc1ccc(C(=O)Nc2cccnc2Oc2ccc(Cl)cc2)cc1 | > 100 µM (inactive) |
| O=C(c1cnc(Cc2c[nH]c3ccccc23)c(I)c1)N1CCCCC1 | > 100 µM (inactive) |
| N#Cc1cccc(-c2ccc3c(c2)[C@H]2[C@H](CCN2C(=O)c2ccccc2F)[C@H](CO)N3)c1 | > 100 µM (inactive) |
| O=C(Cc1c(Cl)cccc1Cl)Nc1cccc(S(=O)(=O)N2CCOCC2)c1 | > 100 µM (inactive) |
| C[C@@H]1CCCCO[C@@H](CN(C)C(=O)c2ccccc2)[C@H](C)CN([C@@H](C)CO)C(=O)c2cc(NC(=O)c3ccccc3)ccc2O1 | > 100 µM (inactive) |
| O=C(O)c1cccnc1SCc1ccccc1Cl | > 100 µM (inactive) |
| Cn1nc(C(=O)Nc2cccc(S(=O)(=O)N3CCCCC3)c2)c2ccccc2c1=O | > 100 µM (inactive) |
| CN1CCN(C(=O)C[C@@H]2CC[C@@H]3[C@H](COC[C@H](O)CN3C(=O)Nc3ccc(Cl)cc3)O2)CC1 | > 100 µM (inactive) |
| O=C(Nc1cccc(Oc2ccc3c(c2)C(=O)NC3=O)c1)c1cccs1 | > 100 µM (inactive) |
| COc1ccc(NC(=O)Nc2cccc3c2O[C@H](CN(C)S(=O)(=O)c2ccc(Cl)cc2)[C@H](C)CN([C@@H](C)CO)C3=O)cc1 | > 52 µM (inactive) |
| O=C(Nc1ccc(F)cc1)N1CCCCN2[C@@H](CO)[C@H](c3ccc(-c4ccncc4)cc3)[C@@H]2C1 | > 100 µM (inactive) |
| O=S(=O)(c1ccccc1)N1CC[C@@H]2[C@H](CO)Nc3ccc(Br)cc3[C@@H]21 | > 100 µM (inactive) |
| CCOC(=O)c1nc(C)sc1-c1ccnn1S(=O)(=O)c1cccc(Cl)c1 | > 100 µM (inactive) |
| CCOc1ccc(S(=O)(=O)Nc2ccc(S(=O)(=O)N3CCCC3)cc2)cc1 | > 100 µM (inactive) |
| O=C(Cc1coc2cc(O)ccc12)N1CCN(S(=O)(=O)c2ccc(Br)cc2)CC1 | > 100 µM (inactive) |
| CCOc1cccc(-c2cc(-c3n[nH]c(=S)n3CC)c3ccccc3n2)c1 | > 100 µM (inactive) |
| Cc1cc(OCCCCOc2ccc(S(N)(=O)=O)c(C)c2)ccc1S(N)(=O)=O | > 100 µM (inactive) |
| CC(C)(C)C1CCC(OCC(O)CN2CCN(c3ccccn3)CC2)CC1 (stereo not drawn) | > 100 µM (inactive) |
| CCOc1ccc(NC(=O)CN(C)CC(=O)Nc2ccc(Br)cc2F)cc1OCC | > 100 µM (inactive) |
| COc1ccc2nc(SCC(=O)Nc3ccccc3OC)[nH]c2c1 | > 100 µM (inactive) |
| O=C(NCc1ccccc1)c1nc(S(=O)(=O)Cc2ccccc2)ncc1Cl | > 100 µM (inactive) |
| COc1ccc(C(=O)Cn2c(C)nc([N+](=O)[O-])c2Br)cc1 | > 100 µM (inactive) |

| Compound | AC50 |
| --- | --- |
| C[C@]12CCC3C(CC[C@H]4C[C@@H](O)CC[C@]34C)[C@H]1CC[C@H]2O (stereo partly drawn) | > 100 µM (inactive) |
| O=C(Nc1ccc2nc3n(c(=O)c2c1)CCCCC3)c1c(F)ccc([N+](=O)[O-])c1F | > 100 µM (inactive) |
| CCOC(=O)c1nc(S(C)(=O)=O)ncc1Cl | > 100 µM (inactive) |
| Cc1ccccc1-n1nnnc1SCCCC(=O)c1ccc(F)cc1 | > 100 µM (inactive) |
| COc1ccc(-c2csc(NC(=O)CC(NC(C)=O)c3ccccc3)n2)cc1OC (stereo not drawn) | > 100 µM (inactive) |
| O=C(Nc1ccc(S(=O)(=O)NC2=NCCCCC2)cc1)c1ccc([N+](=O)[O-])s1 | > 100 µM (inactive) |
| CCOc1ccc2sc(NS(=O)(=O)c3ccc(N)cc3)nc2c1 | > 100 µM (inactive) |
| N#Cc1ccsc1NC(=O)CSc1nnnn1-c1ccc(O)cc1 | > 100 µM (inactive) |
| O=C(NCc1ccco1)c1ccc(COc2cccc3ccccc23)cc1 | > 100 µM (inactive) |
| CCOC(=O)c1[nH]c2ccccc2c1NC(=O)c1ccc(Br)o1 | > 100 µM (inactive) |
| O=C(CCCSc1nc2ccccc2s1)NCc1ccc2c(c1)OCO2 | > 100 µM (inactive) |
| CSc1cccc(NC(=O)CSc2nc3ccccc3o2)c1 | > 100 µM (inactive) |
| CCCCNC(=O)C[C@@H]1C[C@@]2(C(=O)OC)CCCCC=C2N(Cc2ccccc2)C1=O | > 100 µM (inactive) |
| CSc1ccccc1NC(=O)c1ccccc1N(Cc1ccccc1)S(C)(=O)=O | > 100 µM (inactive) |
| CCN(CC)S(=O)(=O)c1ccc(O)c(C(=O)OCC(=O)NC23CC4CC(CC(C4)C2)C3)c1 | > 100 µM (inactive) |
| O=C(O)CC1(CC(=O)NCc2ccc(-c3cccs3)cc2)CCCCC1 | > 100 µM (inactive) |
| CCC(=O)Nc1sc(Cc2ccc3c(c2)OCO3)c(C)c1C(N)=O | > 100 µM (inactive) |
| Cc1ccc(NC(=O)CCCSc2ccccc2)cc1S(=O)(=O)N1CCOCC1 | > 100 µM (inactive) |
| O=C(CSc1nc2scc(-c3ccccc3)c2c(=O)[nH]1)N1CCCCC1 | > 100 µM (inactive) |
| Cc1ccc(NC(=O)CN(C)S(=O)(=O)c2cccc3cccnc23)cc1F | > 100 µM (inactive) |
| Cc1ccc(S(=O)(=O)Nc2ccccc2CNc2cccc(C)n2)cc1 | > 100 µM (inactive) |
| CC1CCN(CC(O)COCCC23CC4CC(CC(C4)C2)C3)CC1 (stereo not drawn) | > 100 µM (inactive) |

| Compound | AC50 |
| --- | --- |
| CCc1cc2cc(OC)ccc2nc1SCC(=O)Nc1cc(OC)c(OC)cc1C(=O)O | > 100 µM (inactive) |
| COC(=O)C(Cc1csc2ccc(Cl)cc12)NC(=O)c1ccc(Cl)cc1 (stereo not drawn) | > 100 µM (inactive) |
| Nc1cc([N+](=O)[O-])ccc1Nc1ccc(O)cc1 | > 100 µM (inactive) |
| COc1ccc(NC(=O)Nc2cccc3c2O[C@@H](CN(C)S(=O)(=O)c2ccc(Cl)cc2)[C@H](C)CN([C@H](C)CO)C3=O)cc1 | > 100 µM (inactive) |
| Cc1cc(Br)ccc1SCC(=O)OCC(=O)NCc1ccco1 | > 100 µM (inactive) |
| O=C(CSc1nc(C2CCCCC2)nc2ccccc12)N1CCCC1 | > 100 µM (inactive) |
| COC(=O)c1c(NC(=O)c2ccccc2C(=O)O)sc2c1CCC2 | > 100 µM (inactive) |
| Cc1ccc(S(=O)(=O)NCc2c(-c3ccccc3)noc2C)cc1 | > 100 µM (inactive) |
| Cc1csc(SCc2nc3scc(-c4ccccc4)c3c(=O)[nH]2)n1 | > 100 µM (inactive) |
| COc1ccc2nc(SCC(=O)Nc3ccccc3)[nH]c2c1 | > 100 µM (inactive) |
| O=C(CN1CCc2ccccc2C1)Nc1ccc(F)cc1F | > 100 µM (inactive) |
| O=C(c1cc(C(=O)N2CCOCC2)c2nc3ccccc3n2c1)c1cc(Cl)cc(Cl)c1O | > 100 µM (inactive) |
| C=CCn1c(-c2cc3cccc(OC)c3o2)n[nH]c1=S | > 100 µM (inactive) |
| Cc1cc(NC(=O)CS(=O)(=O)c2cn(Cc3cccc(Br)c3)c3ccccc23)no1 | > 100 µM (inactive) |
| O=C(O)c1ccccc1NC(=O)C(c1ccccc1)c1ccccc1 | > 100 µM (inactive) |
| C[C@@H]1CN([C@H](C)CO)C(=O)c2cccc(NC(=O)c3ccncc3)c2O[C@@H]1CN(C)S(=O)(=O)c1ccc(Cl)cc1 | > 100 µM (inactive) |
| CCN(CC)CCN(C(=O)C1CCCCC1)c1nc2cc3c(cc2s1)OCO3 | > 100 µM (inactive) |
| Cc1c(C(=O)NCCSCc2cccc(C(F)(F)F)c2)cnn1-c1ccc(F)cc1 | > 100 µM (inactive) |
| C=CCn1c(CCSCc2ccc(OC)c(C)c2)n[nH]c1=S | > 100 µM (inactive) |
| Fc1cccc(Cc2c(-c3ccco3)nc3c4ccccc4ccn23)c1 | > 100 µM (inactive) |
| O=C(CCc1nc2ccccc2s1)OCC(=O)c1ccc[nH]1 | > 100 µM (inactive) |
